Like-named read-outs stand apart in the source and are kept apart here.
Key:
[1] = target: T1, cathepsin L (Homo sapiens, UniProt P07711); experiment: biochemical; settings: for inhibition at 20 µM: read-out: % inhibition of Cath. L
Procedure: (§1) Inhibition of cathepsins and rhodesain was tested with the fluorogenic substrate Cbz-Phe-Arg-AMC as described previously [19]. First, a screening at 20 µM inhibitor concentration was performed. For compounds showing >60% inhibition at this concentration, the IC50 values were determined. […] The respective Ki values (Table 1) were determined from plots of the IC50 values against substrate concentration according to the Cheng–Prusoff relationship [46].
(§2) Enzyme assays / Rhodesain and Cathepsins
(§3) The assays were performe d as described previously [7,8] by incubating rhodesain in 190 μL
(§4) assay buffer (50 mM sodium acetate pH 5.5, 5 mM EDTA, 200 mM NaCl, 0.005% Brij) with 5 μL of an
(§5) inhibitor DMSO stoc k solution of a given concentrati on for 10 min at room te mperature. The reaction
(§6) was started by adding 5 μ L of 400 μM Z-Phe-Arg-7-amino-4-methylc umari n (Z-Phe-Arg-AMC) in
(§7) DMSO. The released AMC was excited at 380 nm and the upc oming fl uoresce nce measured at 460
(§8) nm at 25 °C over time. The final substrate concentration was 10 μM.
(§9) Quenching of the fluoresc ence of the released AMC by the inhibitors was acc ounted for as
described previously [9].
(§10) The cathepsin L assays wer e performed accordi ngly in 50 mM Tris buffer (pH 6.5, 5 mM EDTA,
(§11) 200 mM NaCl, 0.005% Brij) and 250 μM Z-Phe-Arg-AMC concentration (final conce ntration: 6.25 μM).
(§12) The cathepsin B (Calbioche m) assays were performed accordingly in 50 mM Tris buffer pH 6.5,
(§13) 5 mM EDTA, 200 mM NaCl and 0.005% Brij leading to final enzyme and substrate concentrati ons of
(§14) Final inhibitor c once ntrations ranged from 0.001 μM to 100.0 μM.

[2] = target: cathepsin B (Homo sapiens, UniProt P07858); experiment: biochemical; settings: for inhibition at 20 µM: read-out: % inhibition of Cath. B
Procedure: as §1, §2, §3, §4, §5, §6, §7, §8, §9
described previously [9].
as §10, §11, §12, §13, §14

[3] = target: T2, serine protease of the Dengue virus (DENV PR) (Dengue virus type 2, UniProt P29990); experiment: Dengue virus protease inhibition assay; format: biochemical; settings: 20 µM inhibitor
T2 construct: the serine protease of the Dengue virus (DENV PR)
T2 sequence (P29990 1394-1440): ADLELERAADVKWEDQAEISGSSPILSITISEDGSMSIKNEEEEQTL
T2 sequence (P29990 1476-1653): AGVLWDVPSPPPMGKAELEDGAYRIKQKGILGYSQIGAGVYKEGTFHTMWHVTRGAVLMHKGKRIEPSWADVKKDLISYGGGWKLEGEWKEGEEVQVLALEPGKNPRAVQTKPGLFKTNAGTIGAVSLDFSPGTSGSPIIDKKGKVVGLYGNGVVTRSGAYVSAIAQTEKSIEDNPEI

[4] = target: T3, S. aureus sortase A (Staphylococcus aureus, UniProt Q2FV99); experiment: biochemical; settings: 20 µM final inhibitor concentration
T3 construct: made in house
T3 sequence (Q2FV99 whole entry): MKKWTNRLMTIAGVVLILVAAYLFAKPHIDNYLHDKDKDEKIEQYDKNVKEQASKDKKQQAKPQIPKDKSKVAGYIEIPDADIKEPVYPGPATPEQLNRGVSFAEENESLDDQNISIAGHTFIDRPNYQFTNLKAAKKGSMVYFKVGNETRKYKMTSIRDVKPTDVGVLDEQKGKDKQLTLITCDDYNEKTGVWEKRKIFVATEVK

[5] = target: T1, cathepsin L; settings: IC50 increases linearly with substrate concentration
Procedure: as §1, §2, §3, §4, §5, §6, §7, §8, §9
described previously [9].
as §10, §11, §12, §13, §14

[6] = target: T4, rhodesain (Trypanosoma brucei rhodesiense, UniProt Q95PM0, S297A); experiment: Rhodesain inhibition, fluorogenic substrate Cbz-Phe-Arg-AMC; format: biochemical; settings: for % inhibition of Rhod.: 20 µM inhibitor
T4 sequence (Q95PM0 126-342 S297A): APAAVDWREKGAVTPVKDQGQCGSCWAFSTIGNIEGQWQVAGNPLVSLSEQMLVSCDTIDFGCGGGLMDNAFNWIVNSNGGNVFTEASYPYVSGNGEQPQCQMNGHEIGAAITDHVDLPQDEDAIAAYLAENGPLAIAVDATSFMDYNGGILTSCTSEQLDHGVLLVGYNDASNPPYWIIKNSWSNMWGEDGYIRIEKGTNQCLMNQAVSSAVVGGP

[7] = target: T4, rhodesain; experiment: Hydrolysis assay of ester 7 with rhodesain, LC-MS; format: biochemical; settings: room temperature, 24 h
[8] = format: physicochemical; settings: 800 µM in rhodesain sample buffer pH 5.5 with 10% d6-DMSO
Procedure: The interaction of the fluorinated inhibitors 7 and 8 with rhodesain was probed via ^19F NMR spectroscopy (Figure 3). […] To probe the rhodesain-mediated turnover of 7 into 8, we recorded time-resolved ^19F NMR spectra of 7 (800 µM) in the presence of 4 µM rhodesain (Figure 3b). During the measurement, the solution became clear and a dramatic difference in the chemical shift occurred to values identical to those observed for compound 8. The reaction was subsequently analyzed by MS (see Section 2.4), which confirmed the formation of the free acid 8.
Table S1 (DP4+)-results for product 12.
Lyophilized rhode sain was reconstituted at 4 mg/mL in 50 mM Na acetate, pH 5.5, 200 mM NaCl, 5 mM EDTA. […] After the addition of the inhibit ors at a final concentrati on of 0.1 mM, samples were analyzed by LC-MS using a nanoAcquity UP LC system (Waters Corporation) coupled to a nano-ESI-Q-TOF mass spectrome ter (Synapt G2-S HDMS, Waters Corporation). […]
For 19F NMR, c ompounds 7 (800 μM) or 8 (400 μM) were dissolved in rhodesain sample buffer (50 mM NaAcetate, pH 5.5, 200 mM NaCl, 5 mM Na-EDTA, 1 mM TCEP) with 10% d6-DMSO from a 40 mM inhibitor stock in d6-DMSO. Spectra were recorded at 303 K on a Bruker Avance 3 600 MHz spectrome ter with a Prodigy TCI cryoprobe (Bruker, Karlsruhe). Because 1H and 19F are measured in the same coil, protons wer e not decoupled during 19F acquisition. […]

[9] = system: T. b. brucei 449 cell line; experiment: T. b. brucei cell survival assay (ATPlite); format: cell-based; settings: Trypanosoma brucei, after 24 h, read-out: EC50 anti-trypanosomal activity
Procedure: Ester 7 and acid 8 were tested for their anti-trypanosomal activity against T. brucei brucei using the ATPlite assay according to previously published procedures. […] The differences in anti-protease and anti-trypanosomal activity between the lipophilic ester 7 and the more hydrophilic acid 8 might be due to different cell permeabilities of the compounds. […]
NaCl) followed by 45 min incubation at room te mpe rature. […] 5 μL of […] Z-Phe-Arg-AMC were added to 195 μL of rhodesain-8 or rhodesai n-DMSO stock solutions and the upcoming fluorescence was measured over time to assure complete inhibition (see Figure SI1)). […]
For the dilution assay, […] of the rhodesain-8 stock solution were diluted with […] 50 mM sodiu m acetate buffer (pH 5.5 with 5 mM EDTA, 200 mM NaCl 5 mM DTT) and the recovery of the enzymatic activity was measured immediately after adding […] of 400 μM Z-Phe-Arg-AMC (see […]
90 μL HMI-9 medium containing 2500 cells/mL were distributed in 96-well microplate s (PerkinEl mer). […] 50 μL of ATPlite 1 step solution (PerkinEl mer) was added to each well of the microplate and luminesce nce measured at room temperature with an Infinite® M200 PRO plate reader (Tecan Trading AG). The measured values were plotted against the c omp ound concentrati ons top yie ld the dose-resp onse c urve. The EC50 values were calculated using GraF it version 5.013 (Erithacus Software Ltd.). […]

[10] = format: physicochemical; settings: assay buffer pH 5.5 without protease, 24 h, room temperature

T1 sequence (P07711 114-333): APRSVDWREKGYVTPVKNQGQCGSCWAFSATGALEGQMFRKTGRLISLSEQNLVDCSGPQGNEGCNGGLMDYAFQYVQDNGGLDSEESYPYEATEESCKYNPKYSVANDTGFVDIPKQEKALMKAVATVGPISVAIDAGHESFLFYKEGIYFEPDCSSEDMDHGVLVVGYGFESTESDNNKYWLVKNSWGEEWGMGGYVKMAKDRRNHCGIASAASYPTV

Question: What does the source list for `CC(C)C[C@H](NC(=O)[C@H](Cc1ccccc1)NC(=O)c1ccc(Cl)nc1Cl)C(=O)OCc1ccccc1` [Compound 1]?
Answer: inhibition at 20 µM [1]: 57%; inhibition at 20 µM [2]: 16%; inhibition at 20 µM [3]: 19%

Question: Which results are given for `CC(C)C[C@H](NC(=O)[C@H](Cc1ccccc1)Nc1cc(Cl)ncn1)C(=O)OCc1ccccc1` [Compound 2]?
Answer: inhibition at 20 µM [1]: 56%; inhibition at 20 µM [2]: 33%; inhibition at 20 µM [3]: 24%

Question: For `CC(C)C[C@H](NC(=O)[C@H](Cc1ccccc1)Nc1cc(F)c([N+](=O)[O-])cc1[N+](=O)[O-])C(=O)OCc1ccccc1` [Compound 3], which inhibition at 20 µM [1] is on record?
Answer: 60%

Question: And the inhibition at 20 µM [2]?
Answer: 22%

Question: What about the inhibition at 20 µM [3] of the same compound?
Answer: 28%

Question: With `CC(C)C[C@H](NC(=O)[C@H](Cc1ccccc1)NC(=O)c1cccc([N+](=O)[O-])c1F)C(=O)OCc1ccccc1` [Compound 4] as the compound, how does the Ki [1] read?
Answer: 660 nM

Question: And the inhibition at 20 µM [1]?
Answer: 99%

Question: And the inhibition at 20 µM [2]?
Answer: 20%

Question: And the inhibition at 20 µM [4]?
Answer: 11%

Question: What about the “inhibition mode from IC50 at different substrate concentrations” value [5] of the same compound?
Answer: competitive inhibition

Question: And the “% inhibition of Rhod.” value [6]?
Answer: 75%

Question: And the Ki ([6]; read-out: Ki Rhod.)?
Answer: 290 nM

Question: What about the inhibition at 20 µM [3] of the same compound?
Answer: 10%

Question: What does the source list for `CC(C)C[C@H](NC(=O)[C@H](Cc1ccccc1)NC(=O)Nc1ccc(F)c([N+](=O)[O-])c1)C(=O)OCc1ccccc1` [Compound 5]?
Answer: inhibition at 20 µM [1]: 8%; inhibition at 20 µM [2]: 10%; inhibition at 20 µM [3]: 11%

Question: With `CC(C)C[C@H](NC(=O)[C@H](Cc1ccccc1)NC(=O)c1cc([N+](=O)[O-])ccc1F)C(=O)OCc1ccccc1` [Compound 6] as the compound, how does the inhibition at 20 µM [1] read?
Answer: 50%

Question: What about the inhibition at 20 µM [2] of the same compound?
Answer: 21%

Question: What about the inhibition at 20 µM [3] of the same compound?
Answer: 12%

Question: Which Ki [1] does the source give for `CC(C)C[C@H](NC(=O)[C@H](Cc1ccccc1)Nc1cc([N+](=O)[O-])c([N+](=O)[O-])cc1F)C(=O)OCc1ccccc1` [Compound 7] here?
Answer: 1600 nM

Question: And the inhibition at 20 µM [1]?
Answer: 98%

Question: And the Ki [2]?
Answer: 4400 nM

Question: What about the inhibition at 20 µM [2] of the same compound?
Answer: 63%

Question: What about the inhibition at 20 µM [4] of the same compound?
Answer: 16%

Question: And the “conversion of ester into free acid by catalytically active rhodesain” value [7]?
Answer: complete conversion

Question: What about the solubility [8] of the same compound?
Answer: poor solubility

Question: And the “inhibition mode from IC50 at different substrate concentrations” value [5]?
Answer: competitive inhibition mode

Question: And the EC50 [9]?
Answer: 95.3 nM

Question: And the “hydrolysis of ester by reaction buffer” value [10]?
Answer: not hydrolyzed

Question: What about the “% inhibition of Rhod.” value [6] of the same compound?
Answer: 45/nd %

Question: What about the inhibition at 20 µM [3] of the same compound?
Answer: 31%

Question: Which Ki [1] does the source give for `CC(C)C[C@H](NC(=O)[C@H](Cc1ccccc1)Nc1cc([N+](=O)[O-])c([N+](=O)[O-])cc1F)C(=O)O` [Compound 8] here?
Answer: 3000 ± 900 nM

Question: What about the Ki [2] of the same compound?
Answer: 1500 ± 290 nM

Question: And the inhibition at 20 µM [4]?
Answer: 0%

Question: What about the EC50 [9] of the same compound?
Answer: 18500 nM

Question: And the Ki [6]?
Answer: 4 nM

Question: And the “reversibility of rhodesain inhibition” value ([6]; IC50 at 10 min vs 45 min preincubation, dilution assay)?
Answer: reversible inhibition

From publication PMC7145299, “New Cysteine Protease Inhibitors: Electrophilic (Het)arenes and Unexpected Prodrug Identification for the Trypanosoma Protease Rhodesain” (Molecules, 2020)
